In article PMC2852069 (Indian Journal of Pharmaceutical Sciences, 2008):
Converted amounts (≈) assume the structure as drawn.

Legend:
[1] = system: HCV RNA (HCV replicon in Huh 5-2 cells); assay: microbe, parasite or virus in culture; type: cell-based, Hepatitis C Virus; details: for EC50: Hepatitis C virus, Huh-5-2, 72 h, read-out: EC50 HCV RNA
[2] = in vitro; details: African green monkey
[3] = system: Huh 5-2 cells; details: human
[4] = in vitro; details: human, CC50 Cell growth
[5] = system: SARS-CoV; assay: microbe, parasite or virus in culture; type: cell-based, Severe Acute Respiratory Syndrome corona virus (SARS-CoV); details: for EC50: Severe acute respiratory syndrome coronavirus, Vero C1008, 72 h, read-out: EC50 (50% effective concentration required to reduce virus-induced cytopathicity by 50%)

Row | SMILES | EC50 HCV RNA [1] [µg/mL] | EC50 [1] [µg/mL] | CC50 [2] [µg/mL] | CC50 Cell growth [3] [µg/mL] | CC50 [4] [µg/mL] | Maximum protection (%) (at 125 μg/ml) [5] | EC50 [5] [µg/mL] | concentration without toxicity [3]
1 | Cc1cc(C)nc(NS(=O)(=O)c2ccc(/N=C3\C(=O)Nc4ccc(Br)cc43)cc2)n1 [SPIII-5Br] | 17 (≈ 35 µM) | 19 (≈ 39.1 µM) | > 125 | >50 | 42 (≈ 86.4 µM) | 2 | > 125 | –
2 | Cc1cc(C)nc(NS(=O)(=O)c2ccc(/N=C3\C(=O)Nc4ccc(Cl)cc43)cc2)n1 [SPIII-5Cl] | – | > 50 | > 125 | – | > 50 | 10 | > 125 | –
3 | Cc1cc(C)nc(NS(=O)(=O)c2ccc(/N=C3\C(=O)Nc4ccc(F)cc43)cc2)n1 [SPIII-5F] | – | 6 (≈ 14.1 µM) | > 125 | – | 42 (≈ 98.7 µM) | 45 | > 125 | up to 42 μg/ml
4 | Cc1cc(C)nc(NS(=O)(=O)c2ccc(/N=C3\C(=O)Nc4ccccc43)cc2)n1 [SPIII-5H, 4-[(1,2-dihydro-2-oxo-3H-indol-3-ylidene)amino]-N(4,6-dimethyl-2-pyrimidiny)benzene sulphonamide] | 19 (≈ 46.6 µM) | 17 (≈ 41.7 µM) | > 125 | >50 | 42 (≈ 103 µM) | 22 | > 125 | –
5 | Cc1ccc2c(c1)/C(=N/c1ccc(S(=O)(=O)Nc3nc(C)cc(C)n3)cc1)C(=O)N2 [SPIII-5Me] | – | > 50 | > 125 | – | > 50 | 12 | > 125 | –
6 | CC(=O)N1C(=O)/C(=N\c2ccc(S(=O)(=O)Nc3nc(C)cc(C)n3)cc2)c2ccccc21 [SPIII-NA] | – | > 50 | > 125 | – | > 50 | 12 | > 125 | –
